From paper PMC10539439 (Pharmacological Reports, 2023)
Values joined by “and” are separate entries in the source; they are usually repeats but may differ in a detail not shown here. Equal entries are not always repeated.

How the values were obtained:
[1] = target: T1, α2B-adrenoceptor (Homo sapiens, UniProt P18089); assay: Intrinsic activity, AequoScreen aequorin calcium mobilization; format: cell-based
T1 sequence (P18089 1-450): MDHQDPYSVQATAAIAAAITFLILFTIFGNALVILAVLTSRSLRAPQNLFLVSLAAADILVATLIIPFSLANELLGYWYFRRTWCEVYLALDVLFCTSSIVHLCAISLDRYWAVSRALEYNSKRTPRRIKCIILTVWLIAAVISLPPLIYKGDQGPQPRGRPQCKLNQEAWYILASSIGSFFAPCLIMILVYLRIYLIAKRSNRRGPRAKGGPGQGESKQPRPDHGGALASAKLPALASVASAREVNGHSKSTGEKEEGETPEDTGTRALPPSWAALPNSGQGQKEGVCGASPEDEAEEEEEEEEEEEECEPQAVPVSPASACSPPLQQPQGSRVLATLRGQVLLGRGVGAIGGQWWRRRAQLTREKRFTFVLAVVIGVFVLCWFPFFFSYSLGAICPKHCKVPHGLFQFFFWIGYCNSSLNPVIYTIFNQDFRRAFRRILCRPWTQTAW
Method: The intrinsic activity at α2B-adrenoceptor was evaluated by luminescence detection of calcium mobilization using the recombinant expressed jellyfish photoprotein, aequorin.
Measurements were performed with the α2B-adrenergic AequoScreen cell line (PekinElmer cat. no. ES-031-AF). Cell density, in 96-well format measurements, was 5000 cells per well. […] Compound concentration series (50 μL/well) were diluted in 0.1% BSA (Intergen, cat. no. 3440–75) containing assay buffer (D-MEM/F-12, Invitrogen cat. no. 11039) and prepared in white ½ Area Plate—96-well microplates (PerkinElmer, cat. no. 6005560). The cell suspension was dispersed on the ligands using POLARstar optima reader injectors (BMG Labtech, Germany).
The concentration and dilution series having four replicates were prepared as instructed in the AequoScreen Starter Kit Manual. Cells were injected into wells with standard agonist or tested compounds using the POLARstar optima reader (BMG Labtech, Germany), and emitted light was recorded for 20 s. For the antagonist assay, cells were injected (50 μL) into the assay plate with antagonists (50 μL).

[2] = target: T2, TAAR1 (Homo sapiens, UniProt Q96RJ0); assay: Intrinsic activity, Hit Hunter cAMP assay; format: cell-based
T2 sequence (Q96RJ0 1-339): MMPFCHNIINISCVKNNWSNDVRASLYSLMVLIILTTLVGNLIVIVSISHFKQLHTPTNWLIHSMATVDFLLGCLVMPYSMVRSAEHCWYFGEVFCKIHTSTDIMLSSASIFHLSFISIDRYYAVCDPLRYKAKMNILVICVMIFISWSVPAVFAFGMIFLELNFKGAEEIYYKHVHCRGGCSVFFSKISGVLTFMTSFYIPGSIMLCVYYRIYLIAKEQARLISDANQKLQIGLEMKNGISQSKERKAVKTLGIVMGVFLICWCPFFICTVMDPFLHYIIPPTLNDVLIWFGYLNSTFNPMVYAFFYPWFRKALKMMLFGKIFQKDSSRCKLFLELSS
Method: The intrinsic activity study at cells with overexpression of TAAR1 (Eurofins, cat. No. 95-0173C2) was carried out at Eurofins Discoveries (Fremont, USA) using the Hit Hunter cAMP method. This assay monitors the activation of a GPCR via Gi and Gs secondary messenger signaling in a homogenous, non-imaging assay format using a technology developed by DiscoverX called Enzyme Fragment Complementation (EFC) with β-galactosidase (β-Gal) as the functional reporter. The enzyme is split into two complementary portions: EA for Enzyme Acceptor and ED for Enzyme Donor. ED is fused to cAMP and in the assay competes with cAMP generated by cells for binding to a cAMP-specific antibody. Active β-Gal is formed by complementation of exogenous EA to any unbound EDcAMP.
cAMP Hunter cell lines were expanded from freezer stocks according to standard procedures. Cells were seeded in a total volume of 20 µL into white-walled, 384-well microplates and incubated at 37 ℃ for the appropriate time prior to testing. For agonist determination, cells were incubated with a sample to induce a response. Media was aspirated from cells and replaced with 15 µL 2:1 HBSS/10 mM Hepes:cAMP XS + Ab reagent. Intermediate dilution of sample stocks was performed to generate 4X samples in assay buffer. 5 µL of 4 × sample was added to cells and incubated at 37 ℃ or room temperature for 30 or 60 min. Vehicle concentration was 1%. […] Microplates were read following signal generation with a PerkinElmer Envision instrument for chemiluminescent signal detection.

[3] = Food intake of rats fed a high-fat diet; format: in vivo, rat; conditions: for food intake: high-fat diet, groups (cages) 1-3
Method: Male Wistar rats were housed in pairs and fed a high-fat diet consisting of a 40% fat blend (Labofeed B with 40% lard, Morawski, Manufacturer Feed, Poland) for 14 weeks, with water available ad libitum. Control rats were fed a standard diet (Labofeed B, Morawski Manufacturer Feed, Poland). After 10 weeks, rats with obesity-induced via their diet were randomly divided into three equal groups that had the same mean body weight and were treated ip with test compounds at doses of 2 or 5 mg/kg b.w./day (high-fat diet + 4OHGuanabenz) or control group: vehicle–water 0.3 ml/kg (high-fat diet + vehicle = obesity control group) once a day in the morning between 9:00 AM and 10:00 AM for 25 days. Control rats were maintained on a standard diet, with ip administration of vehicle – water (standard diet + vehicle = control group).
The high-fat diet contained 550 kcal and the standard diet 280 kcal per 100 g.
Food intake was measured three times a week, immediately before drug administration. In this target, food was provided to the animals in a certain amount (100 g/cage). The weight of food was measured using dedicated scale (WPT 1C, RADWAG Wagi Elektroniczne, Poland). Next, the total amount of food that the animals had not eaten during that period of time was collected from each cage and weighed, and then, the data were recorded. The next portion of food was subsequently weighed before serving, and so on.

[4] = 5 mg/kg b.w., i.p.; cited from earlier work
[5] = 5 mg/kg b.w., i.p.; cited from earlier work; remark: listed apart in the source

In the case of `Cl.N=C(N)NN=Cc1c(Cl)cc(O)cc1Cl` [4-OH-Guanabenz, 2-[(2,6-Dichloro-4-hydroxyphenyl)methylene]hydrazinecarboximidamide Hydrochloride], the EC50 [1] is reported as 0.33 µM, the “Intrinsic activity at α2B-adrenoceptor (in words)” value [1] is reported as “antagonist activity” and the “Intrinsic activity at TAAR1 (in words)” value [2] is reported as “weak agonistic activity”. The EC50 ([2]; agonist, tested up to 10^–4 M, response at 10^–2 and 10^–1 M assumed 90–100% of tyramine, read-out: EC50 calculated after computer simulation) was 331 µM, the “Average Value (raw signal)” value ([2]; cAMP, Agonist, Conc(M) 1e-6) was 980.00 and the “Value 1 / Value 2 (raw signal)” value ([2]; cAMP, Agonist, Conc(M) 1e-6) was 960 and 1000. The “Average Value (raw signal)” value ([2]; cAMP, Agonist, Conc(M) 1e-5) was 1140.00, the “Value 1 / Value 2 (raw signal)” value ([2]; cAMP, Agonist, Conc(M) 1e-5) was 1080 and 1200 and the “Average Value (raw signal)” value ([2]; cAMP, Agonist, Conc(M) 0.0001) was 2200.00. The “Value 1 / Value 2 (raw signal)” value ([2]; cAMP, Agonist, Conc(M) 0.0001) was 2200, the “% Efficacy (of the full agonist tyramine)” value ([2]; cAMP, Agonist, Conc(M) 0.0001 (10^–4 M)) was 23.1% and the Emax at 100 µM ([2]; cAMP, Agonist, Conc(M) 0.0001 (10^–4 M), read-out: % Efficacy (of the full agonist tyramine)) was 23%. For the same compound, the “Intrinsic activity at TAAR1” value ([2]; summary table) was “+”, the “effect on calories consumed (in words)” value ([3]; high-fat diet rats, ip at both doses (2 or 5 mg/kg b.w.), vs obesity control group) was “reduced the number of calories consumed” and the food intake ([3]; 2mg/kg, week 1, 2 mg/kg) was 995.5 kcal/2rats and 924 kcal/2rats and 960 kcal/2rats. The food intake ([3]; 2mg/kg, week 2, 2 mg/kg) was 891 kcal/2rats and 654.5 kcal/2rats and 772.5 kcal/2rats, the food intake ([3]; 2mg/kg, week 3, 2 mg/kg) was 880 kcal/2rats and 863.5 kcal/2rats and 871.5 kcal/2rats and the food intake ([3]; 5mg/kg, week 1, 5 mg/kg) was 363 kcal/2rats and 478.5 kcal/2rats and 346.5 kcal/2rats. For the same compound, the food intake ([3]; 5mg/kg, week 2, 5 mg/kg) was 561 kcal/2rats and 621.5 kcal/2rats and 693 kcal/2rats and the food intake ([3]; 5mg/kg, week 3, 5 mg/kg) was 599.5 kcal/2rats and 594 kcal/2rats and 665.5 kcal/2rats.
For `N=C(N)N/N=C/c1c(Cl)cccc1Cl` [Guanabenz], the Plasma cholesterol level [4] is listed as “↑ [17]”, the Plasma glucose level [4] is listed as “↓ [17]” and the Plasma triglyceride level [4] is listed as “↓ [17]”. The Core temperature [5] was “↓ [17]”.
